Source: patent US20070208087A1, “Compounds, compositions and methods for the treatment of inflammatory diseases” (priority 2001, published 2007)
Where “and” joins values, the source holds several entries; their conditions need not be identical. Equal values may be shown once.

Experiments:
Format in all cases: cell-based
[1] = system: EOC 13.31 microglia cells; assay: Inhibition of NO release from microglia following 24 hours pretreatment (Example 10); details: for inhibition at 50 µM: Microglia
Outline: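 Confluent EOC 13.31 cells pretreated 24 hours with 50 μM compound (from 10 mM DMSO stock), then stimulated with 10 μg/ml LPS plus 10 ng/ml IFNγ without media change. After a further 48 hours, NO release was measured by Griess Reaction.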

microglia = assay: Ranking of NO release inhibition (Example 12); details: ranking table
Excerpt: The bis- and tris-dihydroxyaryl compounds were ranked in order of effectiveness for the inhibition of NO release as set out in Table 8.

Microglial cells = assay: Dose response inhibition of NO release from microglia, 0.75-200 μM (Example 8); details: for Avg % Inhibition / μM NO release Avg / % inhibition / OD values (printed under head μM NO release) / μM NO release: 48 hours; for % inhibition / OD values (printed under head μM NO release) / μM NO release: single replicates
Procedure: This experiment was designed to determine dose response inhibition of NO release from microglia by bis- and tris-dihydroxyaryl compounds when stimulated with LPS/IFNγ. […] This experiment is designed to determine a dose response for various bis- and tris-dihydroxyaryl compounds. Microglial cells were plated into 96 well plates at 1×10^5 cells/ml. […] The doses tested were: 0.75 μM, 1.56 μM, 3.125 μM, 6.25 μM, 12.5 μM, 25 μM, 50 μM, 100 μM and 200 μM. Nitric oxide release was measured after 48 hours using the Griess reaction.

[2] = system: EOC 13.31 microglial cells; assay: NO release inhibition screen in LPS/IFNγ stimulated microglia, Griess reaction at 48 hours (Example 7)
Procedure: In this experiment, additional bis- and tris-dihydroxyaryl compounds were screened for their ability to inhibit nitric oxide release from microglial cells. Microglial cells stimulated with LPS/IFNγ release nitric oxide. […] This is a continuation of screening experiments. EOC 13.31 microglial cells were plated into 96 well plates. At 24 hours and at confluency, cells were treated with 10 μg/ml LPS/10 ng/ml IFNγ+50 uM bis- and tris-dihydroxyaryl compounds.

[3] = system: EOC 13.31 microglia cells; assay: NO release inhibition in LPS/IFNγ stimulated microglia, concurrent treatment, Griess reaction at 24 hours (Example 6); details: for OD Values: Griess; for OD Values / NO release: single replicates; for inhibition at 50 µM: Microglia
Procedure: The purpose of this experiment was to screen compounds 3, 4, 21, 26, 51, 52, 66, and 78 for their ability to inhibit Nitric oxide release from microglia. […] EOC 13.31 microglia cells were plated into 96 well plates for 24 hours. Confluent cells were treated with 50 μM of the bis- and tris-dihydroxyaryl compounds either with or without stimulation at 1 pg/ml LPS, and 1 ng/ml IFNγ. NO release was measured at 24 hours using the Griess reaction which is a spectrophotometric measure of NO release (reagents from Promega).

[4] = system: TNF-α release from microglia; assay: TNF-α release from LPS/IFNγ stimulated microglia, TNF-α ELISA (Example 11); details: 50 uM compound, TNF-α release, 10 ug LPS and 10 ng IFNγ, 24 hours
Procedure: Also, bis- and tris-dihydroxyaryl compound's ability to inhibit NO release strongly supports their interference with the inflammatory cascade and utlimately inhibition of inflammation. Microglia cells were plated at 1×10^5 cells/ml into 96 well plates. At day three, they were treated with 50 μM bis- and tris-dihydroxyaryl compound for 1 hour and then exposed to 10 μg/ml LPS+10 ng/ml IFNγ for 24 hours. 10 μl of media was removed and stored at −80° until TNF-α ELISA assays were performed. Samples were diluted 1:50 before running the TNF-α ELISA (kit commercially available from Sigma).

[5] = 50 uM pretreatment 24 hours, then LPS/IFNγ 48 hours, single replicates
[6] = 50 uM + 10 μg/ml LPS/10 ng/ml IFNγ, 48 hours
[7] = 50 uM + 10 μg/ml LPS/10 ng/ml IFNγ, 48 hours, single replicates
[8] = Compound + LPS/IFNγ, 50 μM, 24 hours
[9] = Compound Only (without LPS/IFNγ), 50 μM, 24 hours

For `Oc1ccc(Cc2ccc(O)c(O)c2)cc1O` [Compound 3, 3,4,3′,4′-tetrahydroxydiphenylmethane], the “Avg % Inhibition” value ([1]; 50 uM pretreatment 24 hours, then LPS/IFNγ 48 hours) was 79.87%, the “% inhibition” value [1, 5] was 86.74% and 69.63% and 83.24% and the “OD values (printed under head μM NO release)” value [1, 5] was 0.206 and 0.163 and 0.153. The “μM NO release” value [1, 5] was 6.000 µM and 3.313 µM and 2.621 µM, the “% Inhibition at 50 μM (NO release)” value (microglia) was 30% and the “Avg % Inhibition” value (Microglial cells; dose 0.75 μM) was −8.947%. For the same molecule, the “μM NO release Avg” value (Microglial cells; dose 0.75 μM) was 21.563 µM, the “% inhibition” value (Microglial cells; dose 0.75 μM) was −3.42% and −6.58% and −16.84% and the “OD values (printed under head μM NO release)” value (Microglial cells; dose 0.75 μM) was 0.2 and 0.183 and 0.187. For the same molecule, the “μM NO release” value (Microglial cells; dose 0.75 μM) was 23.125 µM and 20.469 µM and 21.094 µM, the “μM NO release Avg” value (Microglial cells; dose 1.56 μM) was 19.792 µM and the “% inhibition” value (Microglial cells; dose 1.56 μM) was 3.68% (2×) and −7.37%. The “OD values (printed under head μM NO release)” value (Microglial cells; dose 1.56 μM) was 0.188 and 0.174 (2×), the “μM NO release” value (Microglial cells; dose 1.56 μM) was 21.250 μM and 19.063 μM (2×) and the “Avg % Inhibition” value (Microglial cells; dose 3.125 μM) was 0.789%. The “μM NO release Avg” value (Microglial cells; dose 3.125 μM) was 19.635 µM, the “% inhibition” value (Microglial cells; dose 3.125 μM) was 2.89% and 5.26% and −5.79% and the “OD values (printed under head μM NO release)” value (Microglial cells; dose 3.125 μM) was 0.186 and 0.175 and 0.172. The “μM NO release” value (Microglial cells; dose 3.125 μM) was 20.938 µM and 19.219 µM and 18.750 µM, the “Avg % Inhibition” value (Microglial cells; dose 6.25 μM) was 7.368% and the “μM NO release Avg” value (Microglial cells; dose 6.25 μM) was 18.333 µM. For the same molecule, the “% inhibition” value (Microglial cells; dose 6.25 μM) was 10.79% and 10.00% and 1.32%, the “OD values (printed under head μM NO release)” value (Microglial cells; dose 6.25 μM) was 0.177 and 0.165 and 0.166 and the “μM NO release” value (Microglial cells; dose 6.25 μM) was 19.531 µM and 17.656 µM and 17.813 µM. The “Avg % Inhibition” value (Microglial cells; dose 12.5 μM) was 6.579%, the “μM NO release Avg” value (Microglial cells; dose 12.5 μM) was 18.490 µM and the “% inhibition” value (Microglial cells; dose 12.5 μM) was 10.00% and 2.89% and 6.84%. The “OD values (printed under head μM NO release)” value (Microglial cells; dose 12.5 μM) was 0.17 and 0.166 and 0.175, the “μM NO release” value (Microglial cells; dose 12.5 μM) was 18.438 µM and 17.813 µM and 19.219 µM and the “Avg % Inhibition” value (Microglial cells; dose 25 μM) was 14.737%. For the same molecule, the “μM NO release Avg” value (Microglial cells; dose 25 μM) was 16.875 µM, the “% inhibition” value (Microglial cells; dose 25 μM) was 22.63% and 10.00% and 11.58% and the “OD values (printed under head μM NO release)” value (Microglial cells; dose 25 μM) was 0.164 and 0.15 and 0.166. The “μM NO release” value (Microglial cells; dose 25 μM) was 17.500 µM and 15.313 µM and 17.813 µM, the “Avg % Inhibition” value (Microglial cells; dose 50 μM) was 47.368% and the “μM NO release Avg” value (Microglial cells; dose 50 μM) was 10.417 µM. The “% inhibition” value (Microglial cells; dose 50 μM) was 48.68% and 46.32% and 47.11%, the “OD values (printed under head μM NO release)” value (Microglial cells; dose 50 μM) was 0.119 and 0.117 and 0.12 and the “μM NO release” value (Microglial cells; dose 50 μM) was 10.469 µM and 10.156 µM and 10.625 µM. The “Avg % Inhibition” value (Microglial cells; dose 100 μM) was 62.368%, the “μM NO release Avg” value (Microglial cells; dose 100 μM) was 7.448 µM and the “% inhibition” value (Microglial cells; dose 100 μM) was 64.47% and 60.53% and 62.11%. The “OD values (printed under head μM NO release)” value (Microglial cells; dose 100 μM) was 0.1 and 0.097 and 0.102, the “μM NO release” value (Microglial cells; dose 100 μM) was 7.500 µM and 7.031 µM and 7.813 µM and the “Avg % Inhibition” value (Microglial cells; dose 200 μM) was 67% and 67.105%. The “μM NO release Avg” value (Microglial cells; dose 200 μM) was 6.510 µM, the “% inhibition” value (Microglial cells; dose 200 μM) was 68.42% and 66.84% and 66.05% and the “OD values (printed under head μM NO release)” value (Microglial cells; dose 200 μM) was 0.095 and 0.092 and 0.094. For the same molecule, the “μM NO release” value (Microglial cells; dose 200 μM) was 6.719 µM and 6.250 µM and 6.563 µM, the “inhibition of NO release, in words” value (Microglial cells; dose response 0.75-200 μM) was “effective inhibitors of NO release” and the “Avg. % Inhibition” value [2, 6] was 96.40%. For the same molecule, the “μM NO release Avg” value [2, 6] was 1.000 µM, the “OD values (printed under head μM NO release)” value [2, 7] was 0.064 and 0.055 and 0.062 and the “μM NO release” value [2, 7] was 1.393 µM and 0.429 µM and 1.179 µM. For the same molecule, the “% inhibition” value ([2]; 50 uM + 10 μg/ml LPS/10 ng/ml IFNγ, 48 hours, single replicates, 50 µM) was 98.46% and 95.75% and 94.98%, the “inhibition of NO release, in words” value ([2]; 50 uM, LPS/IFNγ stimulated microglia) was “effective inhibitors of NO release” and the “inhibition of NO release, in words” value ([3]; 50 μM, LPS/IFNγ stimulated microglial cells) was “very effective inhibitors of NO release”. The “% inhibition of NO release” value [3, 8] was 48.8%, the “NO release, Avg” value [3, 8] was 9.5299 µM and the “OD Values” [3, 8] was 0.094 and 0.137 and 0.145. For the same molecule, the “NO release” value [3, 8] was 6.0450 µM and 10.8259 µM and 11.7188 µM, the “NO release, Avg” value [3, 9] was 1.0417 µM and the “OD Values” [3, 9] was 0.053 (2×) and 0.054. For the same molecule, the “NO release” value [3, 9] was 1.0000 uM (2×) and 1.1250 uM and the “% Inhibition (summary of inhibition of NO release)” value ([3]; Table 2 summary, 50 μM, LPS/IFNγ, 24 hours) was 48.8%.

In the case of `O=C(NCc1ccc(O)c(O)c1)c1ccc(O)c(O)c1` [Compound 52, 3,4-dihydroxybenzoic acid 3,4-dihydroxybenzylamide], the “% inhibition” value [1, 5] is reported as 80.39% and 81.34%, the inhibition at 50 µM ([1]; 50 uM pretreatment 24 hours, then LPS/IFNγ 48 hours, read-out: Avg % Inhibition) is reported as 80% and the inhibition at 50 µM ([1]; 50 uM pretreatment 24 hours, then LPS/IFNγ 48 hours, single replicates, read-out: % inhibition) is reported as 78.2%. For the same molecule, the inhibition at 50 µM ([1]; 50 μM pretreatment, read-out: inhibition of NO release following pretreatment) was > 75%, the inhibition at 50 µM (microglia; Microglia) was 13% and the “% inhibition” value ([4]; individual replicates, 50 µM) was −12.27% and −26.58% and −30.69%. The inhibition at 50 µM ([4]; Microglia, 24 h, read-out: Avg % Inhibition) was -23.2%, the “NO release, Avg” value [3, 8] was 16.2840 µM and the “NO release, Avg” value [3, 9] was -0.0417 µM. It also gave an inhibition at 50 µM ([3]; Compound + LPS/IFNγ, 24 hours, read-out: % inhibition of NO release) of 12.6% and an inhibition at 50 µM ([3]; Table 2 summary, LPS/IFNγ, 24 hours, read-out: % Inhibition (summary of inhibition of NO release)) of 12.6%.
